From ChEMBL document CHEMBL4428126, “Identification and Structural Characterization of Three New Metabolites of Bupropion in Humans” (ACS Med Chem Lett, 2016) come the findings set out here.

Series [1] in a line: Drug level in human liver microsome treated with bupropion at 10 uM preincubated for 5 mins followed by addition of NADPH measured after 20 mins by LC-MS/MS analysis. Format: ADME. The conditions noted are these: microsomes. In general terms: Liver microsomes are vesicles of endoplasmic reticulum, rich in cytochrome P450 enzymes.
A short description of series [2]: Drug metabolism in human liver cytosol assessed as formation of metabolites with m/z transitions of 258 to 184 at 10 uM preincubated for 5 mins followed by addition of NADPH measured after 20 mins by LC-MS/MS analysis. Format: ADME, subcellular.
Series [3] in a line: Drug metabolism in human liver microsomes assessed as formation of metabolites with m/z transitions of 258 to 184 at 10 uM preincubated for 5 mins followed by addition of NADPH measured after 20 mins by LC-MS/MS analysis. Format: ADME, Microsome.
Series [4] has as its target T1, Cytochrome P450 2C19 (Homo sapiens, UniProt P33261). The series can be described thus: Drug metabolism assessed as recombinant CYP2C19 (unknown origin)-mediated erythro-4'-OH-bupropion formation at 1 uM preincubated for 5 mins followed by addition of NADPH measured after 20 mins by LC-MS/MS method. Format: ADME. As to conditions: recombinant enzyme.
Series [5] can be described thus: Drug recovery in urine of human treated with bupropion assessed as free drug level administered orally measured over steady state dosing interval. The conditions noted are these: po. Format: ADME, tissue-based.
The nature of series [6]: Drug recovery in urine of human treated with bupropion assessed as conjugated drug level administered orally measured over steady state dosing interval. As to conditions: po. Format: ADME.
Series [7] addresses T1, Cytochrome P450 2C19. Briefly: Drug metabolism assessed as recombinant CYP2C19 (unknown origin)-mediated threo-4'-OH-bupropion formation at 1 uM preincubated for 5 mins followed by addition of NADPH measured after 20 mins by LC-MS/MS method. Format: ADME. The conditions noted are these: recombinant enzyme.
A short description of series [8]: Drug metabolism in human liver microsomes assessed as hydroxylation of t-butyl group preincubated for 5 mins followed by addition of NADPH measured after 20 mins by LC-MS/MS analysis. Format: ADME, Microsome.
A short description of series [9]: Drug excretion in acid deconjugated urine of human subjects treated with 300 mg/day bupropion by LC/MS/MS analysis. Format: ADME, tissue-based.
Series [10] in a line: Drug level in human liver microsomes treated with 10 uM threohydrobupropion assessed as compound formation with m/z transitions of 258 to 184 preincubated for 5 mins followed by addition of NADPH measured after 20 mins by LC-MS/MS analysis. Format: ADME, Microsome.
Series [11] can be described thus: Drug level in human liver microsomes treated with threohydrobupropion-d9 assessed as hydroxylation of t-butyl group preincubated for 5 mins followed by addition of NADPH measured after 20 mins by LC-MS/MS analysis. Format: ADME, Microsome.
Series [12] is described as follows: Drug metabolism in acid deconjugated urine of human subjects assessed as metabolite M4 formation at 300 mg/day by LC/MS/MS analysis. Format: ADME, tissue-based.
A short description of series [13]: Drug level in plasma of human subjects assessed as compound formation treated with 300 mg/day bupropion by LC/MS/MS analysis. Format: ADME, cell-free.
Series [14] in a line: Drug level in human liver microsomes treated with 10 uM erythrohydrobupropion assessed as compound formation with m/z transitions of 258 to 184 preincubated for 5 mins followed by addition of NADPH measured after 20 mins by LC-MS/MS analysis. Format: ADME, Microsome.
Series [15] is described as follows: Drug recovery in human urine administered as single oral dosage. Format: ADME, tissue-based. The conditions noted are these: read-out: Drug recovery.
Series [16] in a line: Drug recovery in human urine assessed as OH-bupropion administered as single oral dosage. Format: ADME, tissue-based.
A short description of series [17]: Drug recovery in human urine assessed as erythrohydrobupropion administered as single oral dosage. Format: ADME, tissue-based.
Series [18] is described as follows: Drug recovery in human urine assessed as threohydrobupropion administered as single oral dosage. Format: ADME, tissue-based.
A short description of series [19]: Drug excretion in human urine assessed as m-chlorohippuric acid administered as single oral dosage. Format: ADME, tissue-based.
A short description of series [20]: Drug excretion in human urine assessed as polar metabolites formation administered as single oral dosage. Format: ADME, tissue-based.
The nature of series [21]: Drug metabolism in human liver microsomes assessed as NADPH-dependant 4'-OH-bupropion formation at 10 uM preincubated for 5 mins followed by addition of NADPH measured after 20 mins by LC-MS/MS analysis. Format: ADME, Microsome.
The nature of series [22]: Drug metabolism in human liver microsomes assessed as NADPH-dependant metabolite formation at 10 uM preincubated for 5 mins followed by addition of NADPH measured after 20 mins by LC-MS/MS analysis. Format: ADME, Microsome.
Series [23] in a line: Drug metabolism in human plasma assessed as 4'-OH-bupropion formation at 300 mg/day by LC/MS/MS analysis. Format: ADME, cell-free.
Series [24] is described as follows: Drug excretion in human urine assessed as 4'-OH-bupropion formation at 300 mg/day by LC/MS/MS analysis. Format: ADME, tissue-based.
The nature of series [25]: Drug metabolism in human plasma assessed as metabolite M2 formation at 300 mg/day by LC/MS/MS analysis. Format: ADME, cell-free.
Series [26] is described as follows: Drug metabolism in human urine assessed as metabolite M2 formation at 300 mg/day by LC/MS/MS analysis-MS analysis. Format: ADME, tissue-based.
A short description of series [27]: Drug metabolism in acid deconjugated urine of human subjects assessed as metabolite M3 formation at 300 mg/day by LC/MS/MS analysis. Format: ADME, tissue-based.
A short description of series [28]: Plasma concentration in human assessed as 4'-OH-bupropion at 300 mg/day by LC/MS/MS analysis. Format: ADME, cell-free.
Series [29] can be described thus: Plasma concentration in human assessed as threo-4'-OH-bupropion at 300 mg/day by LC/MS/MS analysis. Format: ADME, cell-free.
The nature of series [30]: Plasma concentration in human assessed as erythro-4'-OH-bupropion at 300 mg/day by LC/MS/MS analysis. Format: ADME, cell-free.
The nature of series [31]: Drug recovery in human urine assessed as free and conjugated drug level administered orally measured over steady state dosing interval. Format: ADME, tissue-based. The conditions noted are these: po.
Series [32] can be described thus: Drug recovery in human urine assessed as free drug level administered orally measured over steady state dosing interval. Format: ADME, tissue-based. The conditions noted are these: po.
Series [33] is described as follows: Drug recovery in human urine assessed as conjugated drug level administered orally measured over steady state dosing interval. Format: ADME, tissue-based. The conditions noted are these: po.
Series [34] concerns the target T1, Cytochrome P450 2C19. The series can be described thus: Drug metabolism assessed as recombinant CYP2C19 (unknown origin)-mediated 4'-OH-bupropion formation at 1 uM preincubated for 5 mins followed by addition of NADPH measured after 20 mins by LC-MS/MS method. Format: ADME. The conditions noted are these: recombinant enzyme.
Series [35] in a line: Drug metabolism in acid deconjugated urine of human subjects assessed as metabolite M6 formation at 300 mg/day by LC/MS/MS analysis. Format: ADME, tissue-based.
A short description of series [36]: Drug metabolism in acid deconjugated urine of human subjects assessed as metabolite M7 formation at 300 mg/day by LC/MS/MS analysis. Format: ADME, tissue-based.
Series [37] is described as follows: Drug metabolism in plasma of human subjects assessed as metabolite M4 formation at 300 mg/day by LC/MS/MS analysis. Format: ADME, cell-free.
A short description of series [38]: Drug metabolism in plasma of human subjects assessed as metabolite M6 formation at 300 mg/day by LC/MS/MS analysis. Format: ADME, cell-free.
Series [39] in a line: Drug metabolism in plasma of human subjects assessed as metabolite M7 formation at 300 mg/day by LC/MS/MS analysis. Format: ADME, cell-free.

T1 sequence (P33261 whole entry): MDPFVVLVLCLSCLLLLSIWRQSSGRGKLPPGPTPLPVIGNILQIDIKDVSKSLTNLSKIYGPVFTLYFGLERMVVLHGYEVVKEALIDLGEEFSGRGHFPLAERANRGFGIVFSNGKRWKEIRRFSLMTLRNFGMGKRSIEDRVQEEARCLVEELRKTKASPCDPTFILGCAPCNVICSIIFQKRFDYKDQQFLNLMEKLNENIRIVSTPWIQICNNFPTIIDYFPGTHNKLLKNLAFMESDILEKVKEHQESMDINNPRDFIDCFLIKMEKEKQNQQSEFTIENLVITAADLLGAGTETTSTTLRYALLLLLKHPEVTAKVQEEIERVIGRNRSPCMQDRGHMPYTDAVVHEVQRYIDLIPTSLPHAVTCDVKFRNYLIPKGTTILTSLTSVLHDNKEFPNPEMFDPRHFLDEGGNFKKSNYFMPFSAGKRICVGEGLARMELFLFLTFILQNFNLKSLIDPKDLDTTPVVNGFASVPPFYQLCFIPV

`C[C@@H](NC(C)(C)C)[C@H](O)c1cccc(Cl)c1`: the Drug metabolism result was “Metabolite_Detected” in series [1], “Metabolite_Notdetected” in [2], “Metabolite_Detected” in series [3] and “Metabolite_Detected” in series [4]. Also, the Drug recovery amounted to 63 µmol in series [5] and 22 µmol in series [6].

For the molecule `C[C@@H](NC(C)(C)C)[C@@H](O)c1cccc(Cl)c1`, the Drug metabolism entry in series [1] was “Metabolite_Detected”; in series [2], “Metabolite_Notdetected”; in [3], “Metabolite_Detected”; in [7], “Metabolite_Detected”. In addition, the Drug recovery in series [5] amounted to 610 µmol; in series [6], 250 µmol.

Take `[2H]C([2H])([2H])C(N[C@H](C)[C@@H](O)c1cccc(Cl)c1)(C([2H])([2H])[2H])C([2H])([2H])[2H]`: in series [8], the Drug metabolism result is listed as “Metabolite_Notdetected”.

Regarding `C[C@@H](NC(C)(C)C)[C@H](O)c1ccc(O)c(Cl)c1`, the Drug metabolism entry in series [3], in [10], in series [11], in [12] and in series [13] was “Metabolite_Detected” each time. Also, the Drug excretion entry in series [9] was “Metabolite_Detected”. The figures for the Drug recovery in [5] and in series [6] were 3.3 µmol and 160 µmol, respectively.

As to `CC(NC(C)(C)C)C(=O)c1ccc(O)c(Cl)c1` (stereo not given), the Drug metabolism entry was “Metabolite_Detected” in [1] and “Metabolite_Notdetected” in [2]. Also, the Drug excretion entry in [9] is on record as “Metabolite_Detected”. Besides, the Drug recovery in series [5] came out at 0.3 µmol; in [6], 29 µmol.

As for `CC1NC(C)(C)COC1(O)c1cccc(Cl)c1` (stereo not given), the Drug metabolism entry was “Metabolite_Detected” in series [1], “Metabolite_Notdetected” in [2] and “Metabolite_Notdetected” in series [3]. Moreover, the Drug recovery in series [5] is 77 µmol; in [6], 110 µmol.

In the case of `O=C(O)CNC(=O)c1cccc(Cl)c1`, the Drug recovery in series [5] was 167 µmol.

As to `C[C@@H](NC(C)(C)C)[C@@H](O)c1ccc(O)c(Cl)c1` (relative stereo), the Drug metabolism result in series [14], in series [3], in series [12] and in series [13] was “Metabolite_Detected” throughout. In addition, in series [9], the Drug excretion result is on record as “Metabolite_Detected”. Moreover, the Drug recovery is 0.9 µmol in [5] and 200 µmol in [6].

For the molecule `CC(NC(C)(C)C)C(=O)c1cccc(Cl)c1` (stereo not given) [BUPROPION], the dose excreted in series [15] was found to be 23%. Moreover, the Drug recovery in series [16] turned out to be 23 %ID; in series [17], 23 %ID; in [18], 23 %ID; in series [31] it was 1.4 %ID; in series [32], 59 µmol; in series [33], 6.5 µmol. Also, the Drug excretion in series [19] is on record as 22 %ID; in series [20], 36 %ID; in [24] it was “Metabolite_Detected”. Moreover, the Drug metabolism entry is on record as “Metabolite_Detected” in [21]; “Metabolite_Detected” in series [22]; “Metabolite_Detected” in series [23]; “Metabolite_Notdetected” in [25]; “Metabolite_Notdetected” in series [26]; “Metabolite_Detected” in series [27]. Moreover, the Drug metabolism entry in series [34], in [12], in [35], in series [36], in [37] and in [38] was “Metabolite_Detected” throughout. In addition, the Drug metabolism entry in series [39] is listed as “Metabolite_Detected”. In addition, the concentration is 12 nM in series [28], 7 nM in series [29] and 33 nM in series [30].
